Assay results as given in patent US8921270B2, “Method for pre-emergent weed control using triazine-based herbicide” (Amvac Chemical Corporation, priority 2011, dated 2014).
Like-named read-outs stand apart in the source and are kept apart here.

Legend:
Lambsquaters = test: Weed control field trial, Laurel, Md., light textured soil (Example 4); format: in vivo; conditions: 0.8, 1.6, 2.4 lb ai/a; 14 days preplant, 2 days preplant, PRE; 21 and 35 days after corn emergence
Method: (§1) Several scientific and replicated field research trials were conducted in multiple locations to evaluate weed control and crop tolerance of herbicide compositions containing about 80% by weight of ametryn active ingredient in the form of a water dispersible granule (WDG). The herbicide compositions were applied to the soil surface with or without weeds present at specific intervals i) before planting (preplant), ii) prior to planting and incorporated into the soil (preplant incorporated), and iii) after planting of the corn, but prior to emergence (preemergence).
(§2) Small plot research trials were conducted using a statistical design known as Randomized Complete Block Design (RCBD), which assumes that a population of experimental units can be divided into a number of relatively homogeneous subpopulations or blocks. […] In the analysis, the variation among blocks can be partitioned out of the experimental error (MSE), thereby reducing this quantity and increasing the power of the test. […]
(§3) Efficacy on weeds and crop tolerance evaluations were conducted at specified intervals for each trial. […] Crop tolerance was evaluated at intervals of 7 to 14, 21 to 28, and 42 to 56 days after corn emergence in these trials. […] In an additional trial, efficacy of ametryn at rates of 1.2, 1.6 and 2.4 lb ai/a applied PRE was evaluated on grass and broadleaf weeds at the same intervals as the earlier trials. […]

Goosegrass = test: as above; format: in vivo; conditions: 0.8, 1.6, 2.4 lb ai/a; 14 days preplant, 2 days preplant, PRE; 21 and 35 days after corn emergence
Method: as §1, §2, §3

corn [1] = conditions: in vivo
Method: as §1, §2, §3

corn [2] = conditions: in vivo; remark: listed apart in the source
Method: Several scientific and replicated field research trials were conducted in multiple locations to evaluate weed control and crop tolerance of herbicide compositions containing about 80% by weight of […] active ingredient in the form of a water dispersible granule (WDG). The herbicide compositions were applied to the soil surface with or without weeds present at specific intervals i) before planting ([…]) prior to planting and incorporated into the soil ([…] incorporated), and iii) after planting of the corn, but prior to emergence (preemergence). Small plot research trials were conducted using a statistical design known as Randomized Complete Block Design (RCBD), which assumes that a population of experimental units can be divided into a number of relatively homogeneous subpopulations or blocks. […] In the analysis, the variation among blocks can be partitioned out of the experimental error (MSE), thereby reducing this quantity and increasing the power of the test. […] Crop tolerance was evaluated at intervals of 7 to 14, 21 to 28, and 42 to 56 days after corn emergence in these trials. […] Crop tolerance was evaluated at intervals of 23, 33, 41 and 56 days after corn emergence in these trials. […] Corn injury (height of corn, number of plants emerged) was measured as visual injury (% injury) at three different times during the season. […]

corn [3] = conditions: in vivo; remark: listed apart in the source
Method: as §1, §2, §3

corn [4] = conditions: in vivo; remark: listed apart in the source
Method: as §1, §2, §3

Giant Foxtail [5] = test: Weed control field trial, Wyoming, Ill., medium textured soil (Example 7); format: in vivo; conditions: PRE; 8 weeks observation after application
Method: as §1
(§4) Small plot research trials were conducted using a statistical design known as Randomized Complete Block Design (RCBD), which assumes that a population of experimental units can be divided into a number of relatively homogeneous subpopulations or blocks. The treatments are then randomly assigned to experimental units such that each treatment occurs equally often (usually once) in each block—i.e., each block contains all treatments. Blocks usually represent levels of naturally occurring differences or sources of variation that are unrelated to the treatments. In the analysis, the variation among blocks can be partitioned out of the experimental error (MSE), thereby reducing this quantity and increasing the power of the test. See, Clewer, A. G., and D. H. Scarisbrick. 2001. Practical statistics and experimental design for plant and crop science. John Wiley & Sons Ltd., New York. crop science. Treatment size was typically 4 rows of corn on 30-inch row spacing×30 feet long replicated 3 to 4 times. Preplant, preplant incorporated (PPI), or preemergence (PRE) treatments were uniformly applied with a hand-held backpack sprayer pressurized with compressed air or carbon dioxide (CO2) as the propellant to simulate commercial scale application. Treatments were applied using flat fan nozzle or spray nozzles at from 30 to 35 pounds per square inch (psi) delivering from 15 to 20 gallons of finished spray solution per acre.
(§5) Efficacy on weeds and crop tolerance evaluations were conducted at specified intervals for each trial. […] Crop tolerance was evaluated at intervals of 7 to 14, 21 to 28, and 42 to 56 days after corn emergence in these trials. […] The efficacy of ametryn at a rate of 0.8, 1.2, 1.6 and 2.4 lbs ai/a applied 7 to 14 days preplant was evaluated on grass and broadleaf weeds at intervals of 7 to 14, 21 to 28, and 42 to 56 days after corn emergence. […] In an additional trial, efficacy of ametryn at rates of 1.2, 1.6 and 2.4 lb ai/a applied PRE was evaluated on grass and broadleaf weeds at the same intervals as the earlier trials. […]

Velvetleaf [6] = test: as above; format: in vivo; conditions: PRE; 8 weeks observation after application
Method: as §1, §4, §5

Redroot Pigweed [7] = test: as above; format: in vivo; conditions: PRE; 8 weeks observation after application
Method: as §1, §4, §5

Lambsquarters [8] = test: as above; format: in vivo; conditions: PRE; 8 weeks observation after application
Method: as §1, §4, §5

Giant Foxtail [9] = test: Weed control field trial, Geneva, Minn., medium textured soil (Example 10); format: in vivo; conditions: PRE; 32 days after application
Method: as §1, §4, §5

Velvetleaf [10] = test: as above; format: in vivo; conditions: PRE; 32 days after application
Method: as §1, §4, §5

Lambsquarters [11] = test: as above; format: in vivo; conditions: PRE; 32 days after application
Method: as §1, §4, §5

Waterhemp [12] = test: as above; format: in vivo; conditions: PRE; 60 days after application
Method: as §1, §4, §5

corn [13] = test: Corn injury in weed control field trial, Laurel, Md., light textured soil (Example 9); format: in vivo
Method: as §1, §4, §5

Giant Foxtail [14] = test: Weed control field trial, Fishers, Ind., fine textured soil (Example 8); format: in vivo; conditions: PRE, rate of 1.6 lb ai/a
Method: as §1, §4, §5

Velvetleaf [15] = test: as above; format: in vivo; conditions: PRE, rate of 1.6 lb ai/a
Method: as §1, §4, §5

Redroot Pigweed [16] = test: as above; format: in vivo; conditions: PRE, rate of 1.6 lb ai/a
Method: as §1, §4, §5

Lambsquarters [17] = test: as above; format: in vivo; conditions: PRE, rate of 1.6 lb ai/a
Method: as §1, §4, §5

corn [18] = conditions: in vivo; remark: listed apart in the source
Method: as §1, §2, §3

Green Foxtail = test: Weed control field trial, York, Nebr., medium textured soil (Example 11); format: in vivo; conditions: PRE; 4 weeks after application
Method: as §1
(§6) Small plot research trials were conducted using a statistical design known as Randomized Complete Block Design (RCBD), which assumes that a population of experimental units can be divided into a number of relatively homogeneous subpopulations or blocks. The treatments are then randomly assigned to experimental units such that each treatment occurs equally often (usually once) in each block—i.e., each block contains all treatments. Blocks usually represent levels of naturally occurring differences or sources of variation that are unrelated to the treatments. In the analysis, the variation among blocks can be partitioned out of the experimental error (MSE), thereby reducing this quantity and increasing the power of the test. See, Clewer, A. G., and D. H. Scarisbrick. 2001. Practical statistics and experimental design for plant and crop science. John Wiley & Sons Ltd., New York. crop science. […]
as §5

Velvetleaf [19] = test: as above; format: in vivo; conditions: PRE; 4 weeks after application
Method: as §1, §6, §5

Waterhemp [20] = test: as above; format: in vivo; conditions: PRE; 4 weeks after application
Method: as §1, §6, §5

corn [21] = test: Crop tolerance (corn) field trial, Laurel, Md., light soil (Example 2); format: in vivo
Method: as §1, §2, §3

corn [22] = conditions: in vivo; remark: listed apart in the source
Method: as §1, §2, §3

corn [23] = conditions: in vivo; remark: listed apart in the source
Method: as §1, §2, §3

Morningglory [24] = test: Weed control field trial, Richland, Iowa, fine textured soil (Example 6); format: in vivo; conditions: PRE; 4 weeks observation after application
Method: as §1, §4
(§7) Efficacy on weeds and crop tolerance evaluations were conducted at specified intervals for each trial. Ametryn herbicide (80% WDG) was applied to the soil at the times relative to planting as indicated at rates of 0.8, 1.2, 1.6, and 2.4 pounds of active ingredient per acre (lb ai/a) at various days preplant up to right before planting (0 day preplant), or immediately following planting (PRE), but before crop emergence. Crop tolerance was evaluated at intervals of 7 to 14, 21 to 28, and 42 to 56 days after corn emergence in these trials. Crop injury, if observed, was reported on a 0 to 100% visual rating scale and the type of injury (e.g., stunting) was noted. The efficacy of ametryn at a rate of 0.8, 1.2, 1.6 and 2.4 lbs ai/a applied 7 to 14 days preplant was evaluated on grass and broadleaf weeds at intervals of 7 to 14, 21 to 28, and 42 to 56 days after corn emergence. Efficacy trials were also conducted in no tillage and reduced tillage cropping systems, allowing for evaluations of existing weeds at application (i.e., burndown) and residual control of weeds which germinate following application. In an additional trial, efficacy of ametryn at rates of 1.2, 1.6 and 2.4 lb ai/a applied PRE was evaluated on grass and broadleaf weeds at the same intervals as the earlier trials. Efficacy in the later trials was conducted in both conventional and reduced tillage systems, which allowed for evaluations of residual weed control following application. A local commercial corn hybrid was planted in each trial location.
(§8) A weed control field trial was conducted in Richland, Iowa on a fine textured soil (e.g., silty clay loam). […]

Giant Foxtail [25] = test: as above; format: in vivo; conditions: PRE; 4 weeks observation after application
Method: as §1, §4, §7, §8

Cocklebur [26] = test: as above; format: in vivo; conditions: PRE; 4 weeks observation after application
Method: as §1, §4, §7, §8

Giant Ragweed [27] = test: as above; format: in vivo; conditions: PRE; 4 weeks observation after application
Method: as §1, §4, §7, §8

Velvetleaf [28] = test: as above; format: in vivo; conditions: PRE; 4 weeks observation after application
Method: as §1, §4, §7, §8

Waterhemp [29] = test: as above; format: in vivo; conditions: PRE; 4 weeks observation after application
Method: as §1, §4, §7, §8

Morningglory [30] = test: Weed control field trial, Laurel, Md., light textured soil (Example 5); format: in vivo; conditions: 1.2, 1.6, 2.4 lb ai/a PRE; 27 and 56 days after corn emergence
Method: as §1, §4, §7
(§9) A weed control field trial was conducted in Laurel, Md. on a light textured soil. Ametryn herbicide (80% WDG) was applied preemergence to bare soil in the field to Giant Foxtail, Velvetleaf, Waterhemp, Giant Ragweed, Morningglory, and Cocklebur at rates of 1.2, 1.6 and 2.4 pounds of active ingredient per acre (lb ai/a) immediately following planting (PRE) and prior to corn emergence. The application volume was between 15 and 25 gallons per acre. […]

Giant Foxtail [31] = test: as above; format: in vivo; conditions: 1.2, 1.6, 2.4 lb ai/a PRE; 27 and 56 days after corn emergence
Method: as §1, §4, §7, §9

Cocklebur [32] = test: as above; format: in vivo; conditions: 1.2, 1.6, 2.4 lb ai/a PRE; 27 and 56 days after corn emergence
Method: as §1, §4, §7, §9

Giant Ragweed [33] = test: as above; format: in vivo; conditions: 1.2, 1.6, 2.4 lb ai/a PRE; 27 and 56 days after corn emergence
Method: as §1, §4, §7, §9

Velvetleaf [34] = test: as above; format: in vivo; conditions: 1.2, 1.6, 2.4 lb ai/a PRE; 27 and 56 days after corn emergence
Method: as §1, §4, §7, §9

Waterhemp [35] = test: as above; format: in vivo; conditions: 1.2, 1.6, 2.4 lb ai/a PRE; 27 and 56 days after corn emergence
Method: as §1, §4, §7, §9

SMILES: CCNc1nc(NC(C)C)nc(SC)n1 [ametryn, 2-ethylamino-4-isopropylamino-6-methylthio-s-triazine]
- Percent weed control (Lambsquaters): significant improvement of weed control over the untreated treatment
- Percent weed control (Goosegrass): significant improvement of weed control over the untreated treatment
- Percent corn injury (safety to corn) (corn [1]): acceptable safety
- Corn injury (visual injury) (corn [2]): No injury
- Percent corn injury (safety to corn) (corn [3]): excellent safety
- Percent corn injury (corn safety) (corn [4]): excellent corn safety
- Weed control (Giant Foxtail [5]): good control
- Weed control (Velvetleaf [6]): good control
- Weed control (Redroot Pigweed [7]): good control
- Weed control (Lambsquarters [8]): good control
- Weed control (Giant Foxtail [9]): good control
- Weed control (Velvetleaf [10]): good control
- Weed control (Lambsquarters [11]): good control
- Weed control (Waterhemp [12]): moderate control
- Corn yield (corn [13]; even when minor injury was observed): no negative effect on yield
- Corn injury (corn [13]; in vivo): Minor injury
- Percent corn injury (safety to corn versus commercial standard) (corn [13]; in vivo): as safe to corn as a commercial standard of isoxaflutole with cyprosulfamide
- Safety to corn (corn [13]; in vivo): excellent safety
- Weed control (Giant Foxtail [14]): moderate weed control
- Weed control (Velvetleaf [15]): moderate weed control
- Weed control (Redroot Pigweed [16]): good weed control
- Weed control (Lambsquarters [17]): good weed control
- Percent corn injury (corn safety) (corn [18]): excellent corn safety
- Weed control (Green Foxtail): good control
- Weed control (Velvetleaf [19]): moderate control
- Weed control (Waterhemp [20]): good control
- Corn yield (corn [21]; even though visual injury was measured at certain times): no reduction in yield
- Corn injury (corn [21]; in vivo): non-significant or no injury
- Corn injury (corn [22]): No injury
- Percent corn injury (safety to corn) (corn [23]): acceptable safety
- Weed control (Morningglory [24]): moderate to good control
- Weed control (Giant Foxtail [25]): moderate to good control
- Weed control (Cocklebur [26]): moderate to good control
- Weed control (Giant Ragweed [27]): moderate to good control
- Weed control (Velvetleaf [28]): moderate to good control
- Weed control (Waterhemp [29]): excellent control
- Percent weed control (Morningglory [30]): significant improvement of weed control over the untreated treatment
- Percent weed control (Giant Foxtail [31]): significant improvement of weed control over the untreated treatment
- Percent weed control (Cocklebur [32]): significant improvement of weed control over the untreated treatment
- Percent weed control (Giant Ragweed [33]): significant improvement of weed control over the untreated treatment
- Percent weed control (Velvetleaf [34]): significant improvement of weed control over the untreated treatment
- Percent weed control (Waterhemp [35]): significant improvement of weed control over the untreated treatment
